From US7534809B2, “Phospho-indoles as HIV inhibitors” (priority 2004, dated 2009) come the findings set out here.

Where two headings read alike, the source gives them in different places. A value given as a limit tells only on which side of the number the result lay.

In experiment [1] the test system is HIV BH-10 WT. In words: Cell-based assay using BH-10 cells, wild type.
Experiment [2] deals with HIV mutant strain Y181C. In words: Cell-based assay using BH-10 cells, Y181C mutant. The method, then:
(§1) In a typical embodiment, the NNRTIs display an EC50 in a mutant HIV strain of less than approximately 5, 2.5, 1 or 0.1 μM concentration. The degree of cross-resistance against a drug resistant strain of HIV is measured by assessing the EC50 of the desired oxo-pyrimidine compound in the target mutated, i.e., drug resistant, virus.
(§2) The degree of cross-resistance against a drug resistant strain of HIV can easily be measured by assessing the EC50 of the desired indole in the target mutated i.e., drug resistant, virus.

Experiment [3] concerns HIV mutant strain K103N/Y181C. In words: Cell-based assay using BH-10 cells, K103N/Y181C mutant. The method, then:
as §1, §2

The mark [4] stands for this setting: BH-10 cells, wild type, read-out: EC50 WT///B.
Where [5] appears, read: BH-10 cells, Y181C mutant, read-out: EC50 Y181C.
[6] abbreviates: BH-10 cells, K103N/Y181C mutant, read-out: EC50 K103N/Y181C.
[7] abbreviates: Human immunodeficiency virus 1, read-out: EC50 WT///B, BH-10 cells, wild type.
Setting [8] is: Human immunodeficiency virus 1, read-out: EC50 Y181C, BH-10 cells, Y181C mutant.
Setting [9] is: Human immunodeficiency virus 1, read-out: EC50 K103N/Y181C, BH-10 cells, K103N/Y181C mutant.
Where [10] appears, read: read-out: EC50 K103N/Y181C, BH-10 cells, K103N/Y181C mutant.

As for `COP(=O)(c1cc(C)cc(C)c1)c1c(C(=O)NCc2c(F)ccc(F)c2F)[nH]c2ccc(Cl)cc12` (centres unmarked) [CONHCH2(Ph: 2,3,6-tri-F)], the results for the EC50 in experiment [1] (setting [4]), in experiment [2] (setting [5]) and in experiment [3] (setting [6]) were 17.9 nM, 17.1 nM and 22.8 nM, respectively.

In the case of `CCOP(=O)(c1cc(C)ccc1C)c1c(C(N)=O)[nH]c2ccc(Cl)cc12` (centres unmarked) [Compound 6aa], the EC50 in experiment [1] (setting [4]) is 0.2 nM; in experiment [2] (setting [5]), 1.9 nM; in experiment [3] (setting [6]) it was 1.6 nM.

As to `CCOP(=O)(c1cccc(C)c1)c1c(C(N)=O)[nH]c2ccc(Cl)cc12` (centres unmarked) [Compound 6ab], the results for the EC50 in experiment [1] (setting [7]), in experiment [2] (setting [8]) and in experiment [3] (setting [9]) were 0.5 nM, 34.8 nM and 19.6 nM, respectively.

As to `CCOP(=O)(c1cccc(F)c1)c1c(C(N)=O)[nH]c2ccc(Cl)cc12` (centres unmarked) [Compound 6ae], the EC50 in experiment [1] (setting [4]) was determined as 0.5 nM; in experiment [2] (setting [5]), 61.6 nM; in experiment [3] (setting [6]), 11 nM.

In the case of `CCOP(=O)(c1ccccc1CC)c1c(C(N)=O)[nH]c2ccc(Cl)cc12` (centres unmarked) [Compound 6ah], the results for the EC50 in experiment [1] (setting [7]), in experiment [2] (setting [8]) and in experiment [3] (setting [9]) were 16.2 nM, 211 nM and 307 nM, respectively.

As to `CCOP(=O)(c1ccccc1Cl)c1c(C(N)=O)[nH]c2ccc(Cl)cc12` (centres unmarked) [Compound 6ai], the figures for the EC50 in experiment [1] (setting [7]), in experiment [2] (setting [8]) and in experiment [3] (setting [9]) were 1.2 nM, 146 nM and 17.3 nM, respectively.

Regarding `CCOP(=O)(c1cccc(Cl)c1)c1c(C(N)=O)[nH]c2ccc(Cl)cc12` (centres unmarked) [Compound 6d], the EC50 in experiment [1] (setting [7]) came to 1.4 nM; in experiment [2] (setting [8]), 16.6 nM; in experiment [3] (setting [9]) it was 15.8 nM.

As to `CCOP(=O)(c1cccc(CC)c1)c1c(C(N)=O)[nH]c2ccc(Cl)cc12` (centres unmarked) [Compound 6e], the values for the EC50 in experiment [1] (setting [7]), in experiment [2] (setting [8]) and in experiment [3] (setting [9]) were 2 nM, 34.1 nM and 1.2 nM, respectively.

With `CCOP(=O)(c1cccc(C(F)(F)F)c1)c1c(C(N)=O)[nH]c2ccc(Cl)cc12` (centres unmarked) [Compound 6f], the values for the EC50 in experiment [1] (setting [7]) and in experiment [3] (setting [9]) were 6.7 nM and 498 nM, respectively.

In the case of `CCOP(=O)(c1cccc(C#N)c1)c1c(C(N)=O)[nH]c2ccc(Cl)cc12` (centres unmarked) [Compound 6g], the EC50 in experiment [1] (setting [7]) stood at 9.5 nM; in experiment [3] (setting [9]), 195 nM.

Regarding `CCOP(=O)(c1cccc(C(C)C)c1)c1c(C(N)=O)[nH]c2ccc(Cl)cc12` (centres unmarked) [Compound 6i], the EC50 in experiment [1] (setting [7]) was 1.2 nM; in experiment [2] (setting [8]), 9.1 nM; in experiment [3] (setting [9]), 3.5 nM.

On to `CCOP(=O)(c1cccc(OC)c1)c1c(C(N)=O)[nH]c2ccc(Cl)cc12` (centres unmarked) [Compound 6m], for which the EC50 is 2.3 nM in experiment [1] (setting [7]) and 66.4 nM in experiment [3] (setting [9]).

Regarding `CCOP(=O)(c1cccc2ccccc12)c1c(C(N)=O)[nH]c2ccc(Cl)cc12` (centres unmarked) [Compound 6t], the EC50 in experiment [1] (setting [7]) was 32.5 nM; in experiment [2] (setting [8]), greater than 1250 nM; in experiment [3] (setting [9]), greater than 1250 nM.

As for `CCOP(=O)(c1ccc(C)cc1)c1c(C(N)=O)[nH]c2ccc(Cl)cc12` (centres unmarked) [Compound 6w], the EC50 was 7.2 nM in experiment [1] (setting [7]) and greater than 1250 nM in experiment [3] (setting [9]).

In the case of `CCOP(=O)(c1ccccc1C)c1c(C(N)=O)[nH]c2ccc(Cl)cc12` (centres unmarked) [Compound 6x], the EC50 in experiment [1] (setting [4]) was 21.3 nM; in experiment [3] (setting [6]) it was 448 nM.

Consider `CCOP(=O)(c1ccc(C)c(C)c1)c1c(C(N)=O)[nH]c2ccc(Cl)cc12` (centres unmarked) [Compound 6y], for which the EC50 in experiment [1] (setting [4]) is 2.6 nM; in experiment [3] (setting [6]), greater than 1250 nM.

As for `COP(=O)(c1ccccc1)c1c(C(N)=O)[nH]c2ncc(Cl)cc12` (centres unmarked) [Compound 7-Aza], the values for the EC50 in experiment [1] (setting [4]), in experiment [2] (setting [5]) and in experiment [3] (setting [6]) were 14.7 nM, greater than 1250 nM and 193 nM, respectively.

Consider `COP(=O)(c1cc(C)cc(C)c1)c1c(C(N)=O)[nH]c2ccc(Cl)cc12` (centres unmarked) [Compound 7a], for which the EC50 in experiment [1] (setting [7]) stood at 0.2 nM; in experiment [2] (setting [8]), 1.2 nM; in experiment [3] (setting [9]), 1 nM.

As for `COP(=O)(c1cccc(C2CC2)c1)c1c(C(N)=O)[nH]c2ccc(Cl)cc12` (centres unmarked) [Compound 7aa], the figures for the EC50 in experiment [1] (setting [7]), in experiment [2] (setting [8]) and in experiment [3] (setting [9]) were 2.2 nM, 7 nM and 3.7 nM, respectively.

Consider `COP(=O)(c1cccc(C)c1)c1c(C(N)=O)[nH]c2ccc(Cl)cc12` (centres unmarked) [Compound 7ac], for which the EC50 in experiment [1] (setting [4]) was 1.3 nM; in experiment [2] (setting [5]) it was 9.6 nM; in experiment [3] (setting [6]) it was 5.5 nM.

For the compound `COP(=O)(c1ccccc1C)c1c(C(N)=O)[nH]c2ccc(Cl)cc12` (centres unmarked) [Compound 7ad], the EC50 in experiment [1] (setting [4]) worked out at 1.3 nM; in experiment [2] (setting [5]), 32 nM; in experiment [3] (setting [6]), 4.7 nM.

Turning to `COP(=O)(c1ccc(C)c(C)c1)c1c(C(N)=O)[nH]c2ccc(Cl)cc12` (centres unmarked) [Compound 7ae], the EC50 in experiment [1] (setting [7]) amounted to 0.5 nM; in experiment [2] (setting [8]) it was 11.1 nM; in experiment [3] (setting [9]), 1.1 nM.

For `COP(=O)(c1cc(F)cc(F)c1)c1c(C(N)=O)[nH]c2ccc(Cl)cc12` (centres unmarked) [Compound 7aj], the EC50 in experiment [1] (setting [7]) is 0.6 nM; in experiment [2] (setting [8]), 17.7 nM; in experiment [3] (setting [9]), 9.1 nM.

On to `COP(=O)(c1ccc(F)cc1)c1c(C(N)=O)[nH]c2ccc(Cl)cc12` (centres unmarked) [Compound 7ak], for which the values for the EC50 in experiment [1] (setting [7]), in experiment [2] (setting [8]) and in experiment [3] (setting [9]) were 5.5 nM, 34.5 nM and 468 nM, respectively.

`COP(=O)(c1ccccc1F)c1c(C(N)=O)[nH]c2ccc(Cl)cc12` (centres unmarked) [Compound 7al]: the figures for the EC50 in experiment [1] (setting [4]), in experiment [2] (setting [5]) and in experiment [3] (setting [6]) were 0.5 nM, 13.9 nM and 2.6 nM, respectively.

`CCc1ccccc1P(=O)(OC)c1c(C(N)=O)[nH]c2ccc(Cl)cc12` (centres unmarked) [Compound 7an]: the EC50 in experiment [1] (setting [7]) stood at 2.9 nM; in experiment [2] (setting [8]), 50.5 nM; in experiment [3] (setting [9]), 1.3 nM.

`COP(=O)(c1ccccc1Cl)c1c(C(N)=O)[nH]c2ccc(Cl)cc12` (centres unmarked) [Compound 7ao]: the EC50 in experiment [1] (setting [7]) is 0.4 nM; in experiment [2] (setting [8]) it was 2 nM; in experiment [3] (setting [9]) it was 1.4 nM.

`COP(=O)(c1cccc(COCc2ccccc2)c1)c1c(C(N)=O)[nH]c2ccc(Cl)cc12` (centres unmarked) [Compound 7ap]: the EC50 in experiment [1] (setting [7]) is 153 nM; in experiment [2] (setting [8]), 1140 nM; in experiment [3] (setting [9]), greater than 1250 nM.

With `COP(=O)(c1cccc(CO)c1)c1c(C(N)=O)[nH]c2ccc(Cl)cc12` (centres unmarked) [Compound 7aq], the EC50 in experiment [1] (setting [7]) is 2.5 nM; in experiment [2] (setting [8]), 83.1 nM; in experiment [3] (setting [9]), 126 nM.

As to `COP(=O)(c1cccc(C(C)(C)C)c1)c1c(C(N)=O)[nH]c2ccc(Cl)cc12` (centres unmarked) [Compound 7ar], the EC50 in experiment [1] (setting [7]) turned out to be 2.9 nM; in experiment [2] (setting [8]) it was 19.3 nM; in experiment [3] (setting [9]), 30.6 nM.

Turning to `COP(=O)(c1cc(C)cc(C#N)c1)c1c(C(N)=O)[nH]c2ccc(Cl)cc12` (centres unmarked) [Compound 7as], the figures for the EC50 in experiment [1] (setting [7]), in experiment [2] (setting [8]) and in experiment [3] (setting [9]) were 1.4 nM, 4.8 nM and 2.9 nM, respectively.

On to `COP(=O)(c1cc(F)cc(C#N)c1)c1c(C(N)=O)[nH]c2ccc(Cl)cc12` (centres unmarked) [Compound 7at], for which the EC50 in experiment [1] (setting [4]) is 5.7 nM; in experiment [2] (setting [5]), 22.1 nM; in experiment [3] (setting [6]), 10.3 nM.

For `COP(=O)(c1cc(Cl)cc(Cl)c1)c1c(C(N)=O)[nH]c2ccc(Cl)cc12` (centres unmarked) [Compound 7b], the EC50 in experiment [1] (setting [7]) stood at 1.2 nM; in experiment [2] (setting [8]), 5.3 nM; in experiment [3] (setting [9]) it was 16.8 nM.

`COP(=O)(c1cc(C)cc(C)c1)c1c(C(=O)NCc2ccc(F)cc2F)[nH]c2ccc(Cl)cc12` (centres unmarked) [Compound 18aaj]: the EC50 is 41.6 nM in experiment [3] (setting [9]) and 25.8 nM in experiment [3] (setting [10]).

Take `COc1cccc(P(=O)(OC)c2c(C(=O)NCc3ccncc3)[nH]c3ccc(Cl)cc23)c1` (centres unmarked) [Compound 18av]: the EC50 in experiment [1] (setting [7]) was 0.7 nM; in experiment [1] (read-out: EC50 WT///B, BH-10 cells, wild type) it was 0.8 nM; in experiment [3] (setting [9]) it was 2.4 nM; in experiment [3] (setting [10]), 1.4 nM.

Turning to `COP(=O)(c1c(C(N)=O)[nH]c2ccc(Cl)cc12)C1CCCCC1` (centres unmarked) [Compound 57a], the results for the EC50 in experiment [1] (setting [7]) and in experiment [3] (setting [9]) were 1.7 nM and 162 nM, respectively.
